Measurements from ChEMBL document CHEMBL3526033, “Identification of human liver cytochrome P450 enzymes involved in the metabolism of SCH 530348 (Vorapaxar), a potent oral thrombin protease-activated receptor 1 antagonist” (Drug Metab Dispos, 2011).
Blank lines part the entries; values can stand above or below the molecule they belong to.

How the values were obtained:
Cytochrome P450 2E1 = Cytochrome P450 2E1 (Homo sapiens, UniProt P05181); test: Activity of human recombinant CYP2E1 assessed as enzyme-mediated drug metabolism treated with 25 uM vorapaxar after 120 mins by LC-MS/MS analysis in presence of NADPH; type: ADME; conditions: 2 h
Chain of Cytochrome P450 2E1 (P05181 whole entry): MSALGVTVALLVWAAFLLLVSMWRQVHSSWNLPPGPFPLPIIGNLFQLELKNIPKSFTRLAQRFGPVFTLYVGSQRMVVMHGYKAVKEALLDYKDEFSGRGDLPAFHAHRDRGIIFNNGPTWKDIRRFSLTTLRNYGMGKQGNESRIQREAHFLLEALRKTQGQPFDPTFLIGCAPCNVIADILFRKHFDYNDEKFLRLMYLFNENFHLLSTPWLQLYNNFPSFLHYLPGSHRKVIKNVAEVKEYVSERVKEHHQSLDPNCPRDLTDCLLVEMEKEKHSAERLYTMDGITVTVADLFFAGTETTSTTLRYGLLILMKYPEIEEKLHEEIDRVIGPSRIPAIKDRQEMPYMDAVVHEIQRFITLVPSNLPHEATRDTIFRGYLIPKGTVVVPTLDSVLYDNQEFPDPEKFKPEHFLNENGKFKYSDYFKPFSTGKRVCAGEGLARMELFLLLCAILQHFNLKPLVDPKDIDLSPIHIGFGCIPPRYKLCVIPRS

Cytochrome P450 2C9 = Cytochrome P450 2C9 (Homo sapiens, UniProt P11712); test: Activity of human recombinant CYP2C9 assessed as enzyme-mediated drug metabolism treated with 25 uM vorapaxar after 120 mins by LC-MS/MS analysis in presence of NADPH; type: ADME; conditions: 2 h
Chain of Cytochrome P450 2C9 (P11712 whole entry): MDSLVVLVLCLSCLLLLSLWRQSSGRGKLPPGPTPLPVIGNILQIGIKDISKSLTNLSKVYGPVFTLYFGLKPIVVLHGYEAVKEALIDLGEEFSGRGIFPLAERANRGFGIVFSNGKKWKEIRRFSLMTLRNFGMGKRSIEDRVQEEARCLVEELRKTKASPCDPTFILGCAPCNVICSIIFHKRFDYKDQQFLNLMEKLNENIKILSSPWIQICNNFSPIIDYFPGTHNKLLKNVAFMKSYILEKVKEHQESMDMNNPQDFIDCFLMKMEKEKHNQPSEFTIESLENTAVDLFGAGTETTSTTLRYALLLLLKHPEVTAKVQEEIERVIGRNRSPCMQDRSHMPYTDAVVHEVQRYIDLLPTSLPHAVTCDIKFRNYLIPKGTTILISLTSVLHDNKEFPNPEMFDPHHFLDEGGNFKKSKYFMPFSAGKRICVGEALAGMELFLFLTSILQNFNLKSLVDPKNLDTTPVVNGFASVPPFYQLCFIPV

Cytochrome P450 4F12 = Cytochrome P450 4F12 (Homo sapiens, UniProt Q9HCS2); test: Activity of human recombinant CYP4F12 assessed as enzyme-mediated drug metabolism treated with 25 uM vorapaxar after 120 mins by LC-MS/MS analysis in presence of NADPH; type: ADME; conditions: 2 h
Chain of Cytochrome P450 4F12 (Q9HCS2 whole entry): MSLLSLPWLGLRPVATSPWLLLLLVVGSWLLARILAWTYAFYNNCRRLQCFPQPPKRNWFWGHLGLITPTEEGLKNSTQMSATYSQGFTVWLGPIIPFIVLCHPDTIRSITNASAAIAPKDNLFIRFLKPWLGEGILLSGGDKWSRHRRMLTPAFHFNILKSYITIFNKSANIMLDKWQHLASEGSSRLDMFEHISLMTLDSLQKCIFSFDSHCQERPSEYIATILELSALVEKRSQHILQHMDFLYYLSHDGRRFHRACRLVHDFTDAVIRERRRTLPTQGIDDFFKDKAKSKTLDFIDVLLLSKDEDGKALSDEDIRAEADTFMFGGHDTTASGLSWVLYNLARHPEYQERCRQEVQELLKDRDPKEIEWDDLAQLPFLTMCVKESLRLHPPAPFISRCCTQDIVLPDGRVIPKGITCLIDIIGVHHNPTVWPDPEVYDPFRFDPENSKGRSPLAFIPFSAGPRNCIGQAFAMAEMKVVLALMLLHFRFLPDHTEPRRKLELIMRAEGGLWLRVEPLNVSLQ

CYP2C9 = CYP2C9 (Homo sapiens, UniProt P11712); test: Activity of human recombinant CYP2C9 assessed as enzyme-mediated drug metabolism at 10 uM after 120 mins by LC-MS/MS analysis in presence of NADPH; type: ADME; conditions: read-out: Compound recovery
Chain of CYP2C9 (P11712 whole entry): as the sequence (P11712 whole entry) above

Liver microsome [1] = test: Drug metabolism in human liver microsomes assessed as (3R,3aS,4S,4aR,7R,8aR,9aR)-7-amino-4-((E)-2-(5-(3-fluorophenyl)pyridin-2-yl)vinyl)-3-methyldecahydronaphtho[2,3-c]furan-1(3H)-one formation at 10 to 25 uM after 120 mins by LC-MS/MS analysis in presence of tranylcypromine; type: ADME; conditions: 2 h
Liver microsome [2] = test: Drug metabolism in human liver microsomes assessed as 2-hydroxyethyl (1R,3aR,4aR,6R,8aR,9S,9aS)-9-((E)-2-(5-(3-fluorophenyl)pyridin-2-yl)vinyl)-1-methyl-3-oxododecahydronaphtho[2,3-c]furan-6-ylcarbamate formation at 25 uM after 120 mins by LC-MS/MS analysis; type: ADME; conditions: 2 h
[3] = Drug metabolism in insect microsomes at 10 uM after 120 mins by LC-MS/MS analysis in presence of NADPH; type: ADME, Microsome; conditions: read-out: Compound recovery
Cytochrome P450 2J2 = biological target: T1, Cytochrome P450 2J2 (Homo sapiens, UniProt P51589); test: Drug metabolism assessed as human recombinant CYP2J2-mediated 2-hydroxyethyl (1R,3aR,4aR,6R,8aR,9S,9aS)-9-((E)-2-(5-(3-fluorophenyl)pyridin-2-yl)vinyl)-1-methyl-3-oxododecahydronaphtho[2,3-c]furan-6-ylcarbamate formation at 25 uM after 120 mins by LC-MS/MS analysis in presence of astemizole; type: ADME; conditions: recombinant enzyme, 2 h
T1 sequence (P51589 whole entry): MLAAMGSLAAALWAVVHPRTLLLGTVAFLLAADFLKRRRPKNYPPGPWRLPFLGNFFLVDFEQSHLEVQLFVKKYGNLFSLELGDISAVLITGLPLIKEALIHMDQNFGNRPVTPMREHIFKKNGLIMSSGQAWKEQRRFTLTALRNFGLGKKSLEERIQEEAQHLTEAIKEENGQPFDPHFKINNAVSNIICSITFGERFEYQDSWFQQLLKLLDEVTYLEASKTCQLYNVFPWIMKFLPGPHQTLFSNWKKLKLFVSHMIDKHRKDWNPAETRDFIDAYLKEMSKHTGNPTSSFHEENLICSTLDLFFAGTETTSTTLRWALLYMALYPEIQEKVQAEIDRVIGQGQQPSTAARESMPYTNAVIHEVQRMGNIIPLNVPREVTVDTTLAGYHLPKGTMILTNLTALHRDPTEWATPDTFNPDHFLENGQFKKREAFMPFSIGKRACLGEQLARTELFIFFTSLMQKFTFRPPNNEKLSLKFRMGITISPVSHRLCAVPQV

Cytochrome P450 2C19 = Cytochrome P450 2C19 (Homo sapiens, UniProt P33261); test: Activity of human recombinant CYP2C19 assessed as enzyme-mediated drug metabolism at 10 uM after 120 mins by LC-MS/MS analysis; type: ADME; conditions: 2 h
Chain of Cytochrome P450 2C19 (P33261 whole entry): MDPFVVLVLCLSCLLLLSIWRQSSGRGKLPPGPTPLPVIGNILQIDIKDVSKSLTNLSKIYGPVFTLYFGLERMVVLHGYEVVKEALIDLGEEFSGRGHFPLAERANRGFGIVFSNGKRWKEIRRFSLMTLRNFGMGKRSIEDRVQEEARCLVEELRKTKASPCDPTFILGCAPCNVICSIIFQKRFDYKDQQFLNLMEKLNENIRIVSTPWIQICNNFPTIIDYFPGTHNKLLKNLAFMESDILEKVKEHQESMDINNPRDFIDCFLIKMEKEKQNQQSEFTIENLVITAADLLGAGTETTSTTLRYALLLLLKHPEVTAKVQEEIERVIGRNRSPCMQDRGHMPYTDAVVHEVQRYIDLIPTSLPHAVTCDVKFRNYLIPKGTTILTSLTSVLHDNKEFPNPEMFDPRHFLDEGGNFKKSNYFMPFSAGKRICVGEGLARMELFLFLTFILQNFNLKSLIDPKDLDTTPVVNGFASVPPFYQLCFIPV

Cytochrome P450 2C18 = Cytochrome P450 2C18 (Homo sapiens, UniProt P33260); test: Activity of human recombinant CYP2C18 assessed as enzyme-mediated 2-hydroxyethyl (1R,3aR,4aR,6R,8aR,9S,9aS)-9-((E)-2-(5-(3-fluorophenyl)pyridin-2-yl)vinyl)-1-methyl-3-oxododecahydronaphtho[2,3-c]furan-6-ylcarbamate formation at 25 uM after 120 mins by LC-MS/MS analysis in presence of NADPH; type: ADME; conditions: 2 h
Chain of Cytochrome P450 2C18 (P33260 whole entry): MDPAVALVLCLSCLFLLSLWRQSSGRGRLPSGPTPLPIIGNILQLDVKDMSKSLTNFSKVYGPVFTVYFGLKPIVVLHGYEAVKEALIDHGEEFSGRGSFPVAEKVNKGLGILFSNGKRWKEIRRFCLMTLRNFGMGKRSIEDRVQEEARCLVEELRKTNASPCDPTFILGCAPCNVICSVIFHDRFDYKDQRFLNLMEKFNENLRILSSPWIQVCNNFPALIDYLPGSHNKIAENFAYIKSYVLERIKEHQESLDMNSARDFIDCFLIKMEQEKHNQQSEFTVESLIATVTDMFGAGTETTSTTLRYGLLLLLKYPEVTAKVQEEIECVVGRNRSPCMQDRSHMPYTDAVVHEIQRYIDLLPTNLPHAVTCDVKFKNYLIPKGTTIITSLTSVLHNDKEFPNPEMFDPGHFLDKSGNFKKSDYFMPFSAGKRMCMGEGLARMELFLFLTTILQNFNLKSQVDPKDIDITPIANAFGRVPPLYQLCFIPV

Cytochrome P450 1A1 [4] = biological target: T2, Cytochrome P450 1A1 (Homo sapiens, UniProt P04798); test: Activity of human recombinant CYP1A1 assessed as enzyme-mediated 2-hydroxyethyl (1R,3aR,4aR,6R,8aR,9S,9aS)-9-((E)-2-(5-(3-fluorophenyl)pyridin-2-yl)vinyl)-1-methyl-3-oxododecahydronaphtho[2,3-c]furan-6-ylcarbamate formation at 25 uM after 120 mins by LC-MS/MS analysis in presence of NADPH; type: ADME; conditions: 2 h
T2 sequence (P04798 whole entry): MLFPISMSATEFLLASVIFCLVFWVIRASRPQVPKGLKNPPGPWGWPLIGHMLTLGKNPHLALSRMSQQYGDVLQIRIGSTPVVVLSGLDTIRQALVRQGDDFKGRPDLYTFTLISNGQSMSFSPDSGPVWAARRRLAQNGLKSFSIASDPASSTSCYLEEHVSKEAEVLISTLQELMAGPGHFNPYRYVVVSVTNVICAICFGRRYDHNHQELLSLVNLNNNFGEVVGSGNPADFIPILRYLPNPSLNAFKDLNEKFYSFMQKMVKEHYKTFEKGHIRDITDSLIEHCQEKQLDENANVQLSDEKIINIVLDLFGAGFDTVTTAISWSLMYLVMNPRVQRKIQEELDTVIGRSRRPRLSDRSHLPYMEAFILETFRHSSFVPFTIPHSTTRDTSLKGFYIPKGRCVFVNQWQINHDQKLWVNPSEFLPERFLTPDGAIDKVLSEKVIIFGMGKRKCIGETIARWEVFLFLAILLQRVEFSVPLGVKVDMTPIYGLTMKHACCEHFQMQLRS

Liver microsome [5] = test: Drug metabolism in human liver microsomes assessed as (3R,3aS,4S,4aR,7R,8aR,9aR)-7-amino-4-((E)-2-(5-(3-fluorophenyl)pyridin-2-yl)vinyl)-3-methyldecahydronaphtho[2,3-c]furan-1(3H)-one formation at 10 uM after 120 mins by LC-MS/MS analysis; type: ADME; conditions: 2 h
[6] = Drug metabolism in human liver S9 fraction assessed as (3R,3aS,4S,4aR,7R,8aR,9aR)-7-amino-4-((E)-2-(5-(3-fluorophenyl)pyridin-2-yl)vinyl)-3-methyldecahydronaphtho[2,3-c]furan-1(3H)-one formation at 10 uM after 120 mins by LC-MS/MS analysis; type: ADME, subcellular; conditions: s9, 2 h
Cytochrome P450 2A6 = Cytochrome P450 2A6 (Homo sapiens, UniProt P11509); test: Activity of human recombinant CYP2A6 assessed as enzyme-mediated 2-hydroxyethyl (1R,3aR,4aR,6R,8aR,9S,9aS)-9-((E)-2-(5-(3-fluorophenyl)pyridin-2-yl)vinyl)-1-methyl-3-oxododecahydronaphtho[2,3-c]furan-6-ylcarbamate formation at 25 uM after 120 mins by LC-MS/MS analysis in presence of NADPH; type: ADME; conditions: 2 h
Chain of Cytochrome P450 2A6 (P11509 whole entry): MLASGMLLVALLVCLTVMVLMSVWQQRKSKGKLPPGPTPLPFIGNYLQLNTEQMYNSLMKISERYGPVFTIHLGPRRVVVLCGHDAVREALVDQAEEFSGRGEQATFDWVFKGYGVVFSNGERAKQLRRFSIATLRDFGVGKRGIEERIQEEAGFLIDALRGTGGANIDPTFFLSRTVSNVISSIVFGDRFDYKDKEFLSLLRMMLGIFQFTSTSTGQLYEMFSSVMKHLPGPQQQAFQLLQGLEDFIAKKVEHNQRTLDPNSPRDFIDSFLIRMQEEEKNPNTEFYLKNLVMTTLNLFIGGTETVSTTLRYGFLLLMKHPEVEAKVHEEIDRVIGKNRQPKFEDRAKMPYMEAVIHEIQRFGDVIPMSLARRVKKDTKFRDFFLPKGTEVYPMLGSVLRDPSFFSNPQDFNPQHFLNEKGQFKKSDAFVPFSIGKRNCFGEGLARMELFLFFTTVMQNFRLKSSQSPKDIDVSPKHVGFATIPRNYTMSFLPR

Cytochrome P450 1A1 [7] = biological target: T2, Cytochrome P450 1A1; test: Activity of human recombinant CYP1A1 assessed as enzyme-mediated (3R,3aS,4S,4aR,7R,8aR,9aR)-7-amino-4-((E)-2-(5-(3-fluorophenyl)pyridin-2-yl)vinyl)-3-methyldecahydronaphtho[2,3-c]furan-1(3H)-one formation at 25 uM after 120 mins by LC-MS/MS analysis in presence of NADPH; type: ADME; conditions: 2 h

Drug metabolism (Cytochrome P450 2E1): metabolite_detected
Drug metabolism (Cytochrome P450 2C9): metabolite_detected
Drug metabolism (Cytochrome P450 4F12): metabolite_detected
SMILES: C[C@H]1OC(=O)[C@@H]2C[C@@H]3C[C@H](NC(=O)OCCO)CC[C@H]3[C@H](/C=C/c3ccc(-c4cccc(F)c4)cn3)[C@H]12

remaining at 2 h, 10 µM (CYP2C9): 98.8%
Drug metabolism (Liver microsome [1]): metabolite_not_detected
Drug metabolism (Liver microsome [2]): metabolite_not_detected
remaining at 2 h, 10 µM [3]: 98.7%
Drug metabolism (Cytochrome P450 2J2): metabolite_not_detected
SMILES: CCOC(=O)N[C@@H]1CC[C@@H]2[C@@H](C1)C[C@H]1C(=O)O[C@H](C)[C@H]1[C@H]2/C=C/c1ccc(-c2cccc(F)c2)cn1 [VORAPAXAR]

Drug metabolism (Cytochrome P450 2C19): metabolite_not_detected
Drug metabolism (Cytochrome P450 2C18): metabolite_detected
Drug metabolism (Cytochrome P450 1A1 [4]): metabolite_detected
Drug metabolism (Liver microsome [5]): metabolite_not_detected
Drug metabolism [6]: metabolite_not_detected
Drug metabolism (Cytochrome P450 2A6): metabolite_detected
Drug metabolism (Cytochrome P450 1A1 [7]): metabolite_detected
SMILES: CCOC(=O)N[C@@H]1CC[C@@H]2[C@@H](C1)C[C@H]1C(=O)O[C@H](C)[C@H]1[C@H]2/C=[14CH]/c1ccc(-c2cccc(F)c2)cn1
